Values quoted from earlier work in patent US20190269627A1, “MEMANTINE COMBINATIONS AND USE” (Chase Pharmaceuticals Corporation, priority 2016, published 2019).

Tested on: mice
Conditions: 2 mg/kg

**Q.** For `CC12CC3CC(C)(C1)CC(N)(C3)C2` [memantine, 3,5-dimethyladamantan-1-amine], which “effect on scopolamine-induced learning deficits in the water maze” value is on record?
**A.** reverses scopolamine-induced learning deficits
